# Results published in patent US20240182513A1, “SEPARATION OF METAL IONS FROM A SAMPLE USING GLYCOLIPIDS” (ARIZONA BOARD OF REGENTS ON BEHALF OF THE UNIVERSITY OF …, priority 2021, published 2024).
# Assay: Example 2.1 rhamnolipid precipitation, filtration, centrifugation: lanthanum
# Settings: for Treatment 2: Rhamnolipid and Filtration Cf / Treatment 3: Rhamnolipid and Centrifugation Cc / Treatment 1: Rhamnolipid Only Cr: lanthanum concentration after treatment; for Treatment 1: Rhamnolipid Only (Rr) efficiency of removal / Treatment 2: Rhamnolipid and Filtration (Rf) efficiency of removal / Treatment 3: Rhamnolipid and Centrifugation (Rc) efficiency of removal: lanthanum
# Experimental: Structural variants of synthetic glycolipids were used to show the effect of the number and length of the hydrophobic tail(s) on rhamnolipid as a chemical precipitant. […] Solutions (10 mM) were made using nanopure water (≥18 MΩ-cm) then adjusted to a pH of 6.9±0.05 with HNO3 and NaOH. These solutions were made in advance and stored in the cold room for up to one month. They were brought to room temperature before each experiment.
# Three metals were tested for binding with rhamnolipid. Lead as […] (Fisher Scientific, Waltham, MA, 99% purity), was chosen to represent a metal with high rhamnolipid-metal conditional stability constant; lanthanum as La(NO3)3 6(H2O) (Sigma-Aldrich, St. Louis, MO, 99.99% purity) was chosen as a representative REE; and magnesium as Mg(NO3)2 6(H2O) (Sigma-Aldrich, St. Louis, MO, 99% purity) was chosen to represent a metal with a low rhamnolipid-metal conditional stability constant (Hogan et al., 2017). Metal solutions (5 mM) were made using nanopure water (≥18 MΩ-cm) in 20 ml glass scintillation vials. All solutions were used within 15 min to ensure minimal adsorption to the glass vial.
# Three glycolipid-based treatments were evaluated to remove metal from solution: (1) the addition of glycolipid with no further treatment (gravitational precipitation), (2) the addition of a glycolipid followed by filtration or (3) the addition of a glycolipid followed by centrifugation. Each metal (Pb, La, and Mg) was evaluated separately with each of the glycolipid structures. For each experiment, a metal solution was mixed with a glycolipid solution in a 1.7 ml reaction tube at varying molar ratios of glycolipid to metal: 0:1 (glycolipid-free control), 2:1, 5:1, and 10:1. The reactions were mixed in the order of nanopure water (≥18 MΩ-cm), glycolipid solution (10 mM), then metal solution (5 mM). The metal and glycolipid solutions were continuously stirred as they were aliquoted into the reaction tubes. The experiment was performed in triplicate.
# The reaction tubes were mixed overnight (16 to 24 h) and then three samples were collected from each tube to measure the effect of each of the three treatments: a glycolipid only treatment sample, a filtration treatment sample, and a centrifugation treatment sample. Briefly, for the glycolipid only treatment samples all tubes were vortexed for approximately 5 sec immediately before removing 0.1 ml into a dilution tube of 2% trace metal grade nitric acid (12 to 14 ml) to minimize the settling of particles. For the filtration samples each reaction tube was vortexed for 5 sec and then a 0.6 ml aliquot was collected with a 1 ml syringe. A GHP acrodisc disk filter (hydrophilic polypropylene membrane, 0.45 μm pore size, 25 mm disc diameter) from Pall Life Sciences (Port Washington, New York) was then placed onto the end of the syringe and the solution was pushed through the filter. The void space in the disk filter holds approximately 0.5 ml, therefore around 0.1 ml of filtrate was collected into a dilution tube. For the centrifugation sample, the remaining solution was centrifuged at 10,000 RCF for 15 min. Approximately 0.1 ml of the supernatant was aliquoted into a dilution tube. Following collection, all samples were taken for metal analysis using ICP-MS.
smiles,measurement,setting,value
"CCCCCCCCCC(CC(=O)O)OC(=O)CC(CCCCCCCCC)OC1O[C@@H](C)[C@H](O)[C@@H](O)[C@H]1O (stereo partly drawn) [Rha C12C12, rhamnosyl-β-hydroxydodecanoyl-62-hydroxydodecanoate]",Treatment 2: Rhamnolipid and Filtration Cf,molar ratio 2 to 1,0.119 ± 0.007 mmol/L
same,Treatment 3: Rhamnolipid and Centrifugation Cc,molar ratio 2 to 1,0.164 ± 0.013 mmol/L
same,Treatment 1: Rhamnolipid Only Cr,molar ratio 5 to 1,0.197 ± 0.006 mmol/L
same,Treatment 2: Rhamnolipid and Filtration Cf,molar ratio 5 to 1,0.044 ± 0.009 mmol/L
same,Treatment 3: Rhamnolipid and Centrifugation Cc,molar ratio 5 to 1,0.074 ± 0.003 mmol/L
same,Treatment 1: Rhamnolipid Only Cr,molar ratio 10 to 1,0.263 ± 0.007 mmol/L
same,Treatment 2: Rhamnolipid and Filtration Cf,molar ratio 10 to 1,0.035 ± 0.001 mmol/L
same,Treatment 3: Rhamnolipid and Centrifugation Cc,molar ratio 10 to 1,0.057 ± 0.004 mmol/L
same,Treatment 1: Rhamnolipid Only Cr,molar ratio rhamnolipid:lanthanum 2 to 1,0.184 ± 0.014 mmol/L
same,Treatment 1: Rhamnolipid Only (Rr) efficiency of removal,molar ratio 2 to 1,(31.5%)
same,Treatment 2: Rhamnolipid and Filtration (Rf) efficiency of removal,molar ratio 2 to 1,(55.7%)
same,Treatment 3: Rhamnolipid and Centrifugation (Rc) efficiency of removal,molar ratio 2 to 1,(38.7%)
same,Treatment 1: Rhamnolipid Only (Rr) efficiency of removal,molar ratio 5 to 1,(26.4%)
same,Treatment 2: Rhamnolipid and Filtration (Rf) efficiency of removal,molar ratio 5 to 1,(83.7%)
same,Treatment 3: Rhamnolipid and Centrifugation (Rc) efficiency of removal,molar ratio 5 to 1,(72.4%)
same,Treatment 1: Rhamnolipid Only (Rr) efficiency of removal,molar ratio 10 to 1,(2.0%)
same,Treatment 2: Rhamnolipid and Filtration (Rf) efficiency of removal,molar ratio 10 to 1,(86.9%)
same,Treatment 3: Rhamnolipid and Centrifugation (Rc) efficiency of removal,molar ratio 10 to 1,(78.7%)
